The subject of test [1] is SW480 colon carcinoma cells. Description: Cell viability assay (CellTiter-Glo) in SW480 cells.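 Note: SW480 cells stably carrying an Sp5-luciferase TCF/LEF reporter, luminescent ATP signal as viability measure, DMSO-treated cells as control.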 The format is cell-based, human. The conditions noted are these: Homo sapiens, 96 h; cell viability, SW480 cells, four days, CellTiter-Glo.
Protocol: Representative compounds were screened using the assay procedure to assess the effect on cell viability as described below.
For the Cell Viability Assays, the cells were plated at 2,000 cells/well in 384-well plates with a DMEM medium containing 1% fetal bovine serum, and 1% Penicillin-Streptomycin and incubated for four days hours at 37° C. and 5% CO2. Eight replicates of DMSO-treated cells served as controls and cells treated with compound were performed in duplicate.
After incubation, 10 μL of CellTiter-Glo (Promega) was added to each well allowed to incubate for approximately 12 minutes.
Dose-response curves were generated and EC50 concentration values were calculated using non-linear regression curve fit in the GraphPad Prism (San Diego, Calif.) or Dotmatics' Studies Software (Bishops Stortford, UK).
Test [2] has as its system Tau phosphorylation at Ser396 (pSer396), SH-SY5Y cells. The test is described as follows: Tau phosphorylation at Ser396 (pSer396) in SH-SY5Y cells, ELISA/western blot.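 Note: cell lysates probed for reduced Tau pSer396 via ELISA (colorimetric) or western blot (chemiluminescence), both with one shared pSer396 antibody, EC50 for lowering phosphorylation.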 The test is classed as cell-based, human.
For another test, the system named is IL-6. The test is described as follows: IL-6 inhibition in LPS-stimulated human peripheral blood mononuclear cells (HTRF). The test is classed as cell-based. The conditions noted are these: Homo sapiens, PBMC; IL-6, LPS-stimulated huPBMCs, HTRF. The protocol:
Fresh Normal PB MNC (Catalog # PB001, AllCells, Alameda, Calif.) were shipped overnight at 4° C. and resuspended in Roswell Park Memorial Institute (RPMI) 1640 Medium, with GlutaMAX Supplement (Catalog #61870127, ThermoFisher Scientific, Waltham, Mass.) supplemented with 1% Penicillin-Streptomycin (Catalog #151401633 ThermoFisher Scientific, Waltham, Mass.) and 1% fetal bovine serum (FBS) (Catalog #16140089, ThermoFisher Scientific, Waltham, Mass.) assay media.
Fresh normal human peripheral blood mononuclear cells (huPBMCs) were resuspended in 1% FBS-RPMI assay media with 1% Penicillin-Streptomycin 1% to a cell concentration of 1×10e6 cells/mL. Each compound was dissolved in DMSO (Catalog # D8418-100 ml, Sigma-Aldrich, St. Louis, Mo.) as a 10 mM stock and used to prepare compound source plates. Serial dilution (1:3, 10-point dose-response curves starting from 10 μM) and compound transfer was performed using the ECHO 550 (Labcyte, Sunnyvale, Calif.) into 384-well white Proxiplate-Plus assay plates (Catalog #6008289, PerkinElmer, Shelton, Conn.) with appropriate DMSO backfill for a final DMSO concentration of 0.25%. huPBMCs were plated at 5000 cells/well in the 384-well Proxiplate-Plus assay plates and incubated at 37° C.-5% CO2 for 2 hours. 50 ng/mL of Lipopolysaccharides from Escherichia coli 0111:B4 (Catalog # L5293-2 ML, Sigma-Aldrich, St. Louis, Mo.) was added after 2 hours and cells were incubated for another 22 hours at 37° C.-5% CO2. After 22 hour incubation, a mixture of anti-IL6 XL665 and anti-IL-6 Cryptate diluted in reconstitution buffer (Catalog #62IL6PEC, Cisbio Inc., Bedford, Mass.) was added to each well. Following incubation for 3 hours at room temperature, Homogeneous Time-Resolved Fluorescence (HTRF) was measured using the Envision (Perkin Elmer, Shelton, Conn.) at 665 nm and […]. The ratio of fluorescence at 665 nm to 620 nm was used as a readout for IL-6 quantification. All samples were processed in duplicate. Readings were normalized to DMSO treated cells and normalized activities were utilized for EC50 calculations. EC50 was determined using software generated by Dotmatics Limited (Windhill Bishops Stortford Herts, UK) using the Levenberg-Marquardt 4 parameter fitting procedure with finite different gradients.

Test [3] has as its system Wnt activity (Sp5-Luc reporter in SW480 colon carcinoma cells). Description: Wnt activity screening assay (Sp5-Luc reporter gene assay). The format is cell-based, human. The conditions noted are these: Homo sapiens; for EC50: Sp5-Luc reporter, SW480 cells, 36 to 48 hours. The source says:
The screening assay for Wnt activity is described as follows. Reporter cell lines can be generated by stably transducing cancer cell lines (e.g., colon cancer) or primary cells (e.g., IEC-6 intestinal cells) with a lentiviral construct that includes a Wnt-responsive promoter driving expression of the firefly luciferase gene.
SW480 colon carcinoma cells were transduced with a lentiviral vector expressing luciferase with a human Sp5 promoter consisting of a sequence of eight TCF/LEF binding sites. SW480 cells stably expressing the Sp5-Luc reporter gene and a hygromycin resistance gene were selected by treatment with 150 μg/mL of hygromycin for 7 days. These stably transduced SW480 cells were expanded in cell culture and used for all further screening activities. Each compound was dissolved in DMSO as a 10 mM stock and used to prepare compound source plates. Serial dilution (1:3, 10-point dose-response curves starting from 10 μM) and compound transfer was performed using the ECHO 550 (Labcyte, Sunnyvale, Calif.) into 384-well white solid bottom assay plates (Greiner Bio-One) with appropriate DMSO backfill for a final DMSO concentration of 0.1%. For Sp5-Luc reporter gene assays, the cells were plated at 4,000 cells/well in 384-well plates with a DMEM medium containing 1% fetal bovine serum, and 1% Penicillin-Streptomycin and incubated for 36 to 48 hours at 37° C. and 5% CO2. Following incubation, 15 μl of BriteLite Plus luminescence reagent (Perkin Elmer) was added to each well of the 384-well assay plates. The plates were placed on an orbital shaker for 2 min and then luminescence was quantified using the Envision (Perkin Elmer) plate reader. Readings were normalized to DMSO only treated cells, and normalized activities were utilized for EC50 calculations using the dose-response log (inhibitor) vs. response -variable slope (four parameters) nonlinear regression feature available in GraphPad Prism 5.0 (or Dotmatics).

Test [4] relates to LL29 cells (primary human fibroblasts derived from IPF patients), α-smooth muscle actin. Description: Inhibition of fibrotic process: αSMA in TGF-β1-treated primary human fibroblasts from IPF patients (LL29 cells). The test is classed as cell-based. Conditions: Homo sapiens, Fibroblast, 96 h; % αSMA-positive LL29 cells, TGF-β1 20 ng/mL, 4 days. The source says: Representative compounds were screened using primary human fibroblasts (derived from IPF patients) treated with TGF-β1 to determine their ability to inhibit the fibrotic process.
Primary human fibroblasts derived from IPF patients (LL29 cells) [^1Xiaoqiu Liu, et. al., “Fibrotic Lung Fibroblasts Show Blunted Inhibition by cAMP Due to Deficient cAMP Response Element-Binding Protein Phosphorylation”, Journal of Pharmacology and Experimental Therapeutics (2005), 315(2), 678-687; ^2Watts, K. L., et. al., “RhoA signaling modulates cyclin D1 expression in human lung fibroblasts; implications for idiopathic pulmonary fibrosis”, Respiratory Research (2006), 7(1), 88] were obtained from American Type Culture Collection (ATCC) and expanded in F12 medium supplemented with 15% Fetal Bovine Serum and 1% Penicillin/Streptomycin.
Each compound was dissolved in DMSO as a 10 mM stock and used to prepare compound source plates. Serial dilution (1:2, 11-point dose-response curves from […] to 0.94 nM) and compound transfer was performed using the ECHO 550 (Labcyte, Sunnyvale, Calif.) into 384-well clear bottom assay plates (Greiner Bio-One) with appropriate DMSO backfill for a final DMSO concentration of 0.1%. LL29 cells were plated at 1,500 cells/well in 70 μL/well F12 medium supplemented with 1% Fetal Bovine Serum. TGF-β1 (Peprotech; 20 ng/mL) was added to the plates to induce fibrosis (ref. 1 and 2 above). Wells treated with TGF-31 and containing DMSO were used as positive control, and cells with only DMSO were negative control. Cells were incubated at 37° C. and 5% CO2 for 4 days. Following incubation for 4 days, SYTOX green nucleic acid stain (Life Technologies [Thermo Fisher Scientific]) was added to the wells at a final concentration of 1 μM and incubated at room temperature for 30 min. Cells were then fixed using 4% formaldehyde (Electron Microscopy Sciences), washed 3 times with PBS followed by blocking and permeabilization using 3% Bovine Serum Albumin (BSA; Sigma) and 0.3% Triton X-100 (Sigma) in PBS. Cells were then stained with antibody specific to α-smooth muscle actin (αSMA; Abcam) (ref. 1 and 2 above) in 3% Bovine Serum Albumin (BSA; Sigma) and 0.3% Triton X-100 (Sigma) in PBS, and incubated overnight at 4° C. Cells were then washed 3 times with PBS, followed by incubation with Alexa Flor-647 conjugated secondary antibody (Life Technologies [Thermo Fisher Scientific]) and DAPI in 3% Bovine Serum Albumin (BSA; Sigma) and 0.3% Triton X-100 (Sigma) in PBS at room temperature for 1 hour. Cells were then washed 3 times with PBS and plates were sealed for imaging. αSMA staining was imaged by excitation at 630 nm and emission at 665 nm and quantified using the Compartmental Analysis program on the CellInsight CX5 (Thermo Scientific). Dead or apoptotic cells were excluded from analysis based on positive SYTOX green staining. % of total cells positive for αSMA were counted in each well and normalized to the average of 11 wells treated with TGF-β1 on the same plate using Dotmatics' Studies Software.

[5] abbreviates: Homo sapiens, SH-SY5Y cells, overnight (16-18 h), read-out: pSer396 Tau EC50.

The results in this text go back to patent US10604514B2, “6-(5-membered heteroaryl)isoquinolin-3-yl carboxamides and preparation and use thereof” (Samumed, LLC, priority 2017, dated 2020).

Read-outs that look alike come from different tables or passages of the source. A value given as a limit tells only on which side of the number the result lay.

Take `[2H]c1c(NC(=O)C2CCN(CC(C)C)CC2)ncc2ccc(-c3cnn(C)c3)cc12` [Compound 6, 1-Isobutyl-N-(6-(1-methyl-1H-pyrazol-4-yl)isoquinolin-3-yl-4-d)piperidine-4-carboxamide]: the half-maximal effective concentration (EC50) was 1.24 µM in test [1]; 0.103 µM in test [2] (setting [5]); 0.967 µM in the test with IL-6; 0.82 µM in test [3]; 0.132 µM in test [4].

Consider `[2H]c1nc(NC(=O)c2ccnc(N3CCN(CC)CC3)c2)cc2cc(-c3cnn(C)c3)ccc12` [Compound 8, 2-(4-Ethylpiperazin-1-yl)-N-(6-(1-methyl-1H-pyrazol-4-yl)isoquinolin-3-yl-1-d)isonicotinamide], for which the EC50 was 0.099 µM in test [1]; over 10 µM in test [2] (setting [5]); 0.932 µM in the test with IL-6; 0.028 µM in test [3]; 0.095 µM in test [4].

For `[2H]c1nc(NC(=O)c2ccnc(N3CCN(C(C)C)CC3)c2)cc2cc(-c3cnn(C)c3)ccc12` [Compound 9, 2-(4-Isopropylpiperazin-1-yl)-N-(6-(1-methyl-1H-pyrazol-4-yl)isoquinolin-3-yl-1-d)isonicotinamide], the EC50 was 0.106 µM in test [1]; over 10 µM in test [2] (setting [5]); 1.87 µM with IL-6; 0.036 µM in test [3]; 0.157 µM in test [4].

On to `[2H]C1([2H])CCC([2H])([2H])N1c1cc(C(=O)Nc2cc3cc(-c4cnc(C)n4C)ccc3cn2)ccn1` [Compound 73, N-(6-(1,2-Dimethyl-1H-imidazol-5-yl)isoquinolin-3-yl)-2-(pyrrolidin-1-yl-2,2,5,5-d4)isonicotinamide], for which the EC50 was over 10 µM in test [2] (setting [5]), 2.07 µM with IL-6, 2.06 µM in test [3] and 1.71 µM in test [4].

Turning to `[2H]C1([2H])OC([2H])([2H])C([2H])([2H])N(c2cc(C(=O)Nc3cc4cc(-c5cnc(C)n5C)ccc4cn3)ccn2)C1([2H])[2H]` [Compound 74, N-(6-(1,2-Dimethyl-1H-imidazol-5-yl)isoquinolin-3-yl)-2-(morpholino-d8) isonicotinamide], the EC50 in test [1] was 0.479 µM; in test [2] (setting [5]) it was over 10 µM; in the test with IL-6, 1.13 µM; in test [3] it was over 10 µM; in test [4], 1.25 µM. In addition, in test [3] (SW480, read-out: percent inhibition at 10 μM), the inhibition at 10 µM is 30.5%.

With `[2H]C1([2H])N(c2cc(C(=O)Nc3cc4cc(-c5cncn5C)ccc4cn3)ccn2)C([2H])([2H])C([2H])([2H])C([2H])([2H])C1([2H])[2H]` [Compound 75, N-(6-(1-Methyl-1H-imidazol-5-yl)isoquinolin-3-yl)-2-(piperidin-1-yl-d10) isonicotinamide], the EC50 in test [1] was 0.443 µM; in test [2] (setting [5]), over 10 µM; in the test on IL-6, 0.857 µM; in test [3], 3.5 µM; in test [4] it was 0.45 µM.

On to `[2H]C1([2H])OC([2H])([2H])C([2H])([2H])N(c2cc(C(=O)Nc3cc4cc(-c5cncn5C)ccc4cn3)ccn2)C1([2H])[2H]` [Compound 76, N-(6-(1-Methyl-1H-imidazol-5-yl)isoquinolin-3-yl)-2-(morpholino-d8) isonicotinamide], for which the 50% effective concentration (EC50) in test [1] is 0.462 µM; in test [2] (setting [5]), over 10 µM; with IL-6 it was 0.927 µM; in test [3] it was 3.36 µM; in test [4], 0.611 µM.

In the case of `[2H]C1([2H])N(c2cc(C(=O)Nc3cc4cc(-c5cnc(C)n5C)ccc4cn3)ccn2)C([2H])([2H])C([2H])([2H])C1([2H])[2H]` [Compound 77, N-(6-(1,2-Dimethyl-1H-imidazol-5-yl)isoquinolin-3-yl)-2-(pyrrolidin-1-yl-d8)isonicotinamide], the EC50 in test [2] (setting [5]) is over 10 µM; in the test with IL-6, 1.94 µM; in test [3] it was 3.35 µM; in test [4], 2.15 µM.

`[2H]C1([2H])N(c2cc(C(=O)Nc3cc4cc(-c5cncn5C)ccc4cn3)ccn2)C([2H])([2H])C([2H])([2H])C1([2H])[2H]` [Compound 78, N-(6-(1-Methyl-1H-imidazol-5-yl)isoquinolin-3-yl)-2-(pyrrolidin-1-yl-d8) isonicotinamide]: the EC50 in test [1] was 0.468 µM; in test [2] (setting [5]), over 10 µM; in the test on IL-6, 1.05 µM; in test [3], 3.73 µM; in test [4], 0.526 µM.

Regarding `Cc1nnc(-c2cc(F)c3cnc(NC(=O)C4CCC(NCC(F)F)CC4)cc3c2)s1` (centres unmarked) [Compound 204], the EC50 in test [2] (setting [5]) was over 10 µM.

Regarding `COc1ccc2c(c1)[nH]c1c(C)nccc12` [Harmine, reference compound], in test [2] (Homo sapiens, SH-SY5Y, read-out: EC50 in the Tau assay), the EC50 was over 10 µM.

For the compound `CCN1/C(=C/C(C)=O)Sc2ccc(O)cc21` [Indy, reference compound], the EC50 in test [2] (control DYRK1A inhibitors, printed '>10 M' (μ probably lost), read-out: EC50 in the Tau assay) was over 10 µM.
